{"source": "paper PMC11121672", "about": "“Screening of Small-Molecule Libraries Using SARS-CoV-2-Derived Sequences Identifies Novel Furin Inhibitors” (International Journal of Molecular Sciences, 2024)", "note": "pIC50: −log10 of the molar value.", "data": [{"molecular_target": "T1, Furin (Homo sapiens, UniProt P09958)", "T1 construct": "soluble Furin (sFur), truncated before its transmembrane domain (BTMD)", "T1 sequence (P09958 108-715)": "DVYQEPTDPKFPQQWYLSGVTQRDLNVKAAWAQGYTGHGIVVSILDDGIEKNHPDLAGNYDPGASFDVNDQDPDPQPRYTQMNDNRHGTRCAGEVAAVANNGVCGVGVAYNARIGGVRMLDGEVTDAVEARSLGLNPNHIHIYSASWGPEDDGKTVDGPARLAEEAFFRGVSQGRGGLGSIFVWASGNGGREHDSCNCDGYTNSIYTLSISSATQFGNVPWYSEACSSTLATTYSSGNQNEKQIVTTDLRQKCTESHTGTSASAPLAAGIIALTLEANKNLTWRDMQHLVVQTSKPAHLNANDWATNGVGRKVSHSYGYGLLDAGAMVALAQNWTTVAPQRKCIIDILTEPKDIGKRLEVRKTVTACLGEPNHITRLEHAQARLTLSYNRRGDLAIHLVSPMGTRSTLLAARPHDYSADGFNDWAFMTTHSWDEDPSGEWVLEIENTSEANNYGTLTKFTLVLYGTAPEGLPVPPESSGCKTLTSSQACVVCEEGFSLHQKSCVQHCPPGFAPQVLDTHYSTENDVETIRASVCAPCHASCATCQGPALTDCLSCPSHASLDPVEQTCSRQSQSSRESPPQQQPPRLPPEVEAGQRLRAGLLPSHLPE", "experiment": "fluorogenic AMC peptide cleavage assay, soluble furin in conditioned HEK-293T medium without further purification", "type": "biochemical", "values": [{"smiles": "Cc1ccc(N(CCC(=O)O)C2=NC(=O)C(=Cc3ccc(Br)s3)S2)cc1Cl", "note": "[P3, 3-((5-((5-Bromothiophen-2-yl)methylene)-4-oxo-4,5-dihydrothiazol-2-yl)(3-chloro-4-methylphenyl)amino)propanoic acid]", "pIC50": 4.46}, {"smiles": "CN(C)c1ccc(C=C2SC(N(CCC(=O)O)c3ccc(Cl)cc3)=NC2=O)cc1", "note": "[P7, 3-((4-Chlorophenyl)(5-(4-(dimethylamino)benzylidene)-4-oxo-4,5-dihydrothiazol-2-yl)amino)propanoic acid]", "pIC50": 4.21}, {"smiles": "Cc1ccc(N(CCC(=O)O)C2=NC(=O)C(=Cc3cccs3)S2)cc1Cl", "note": "[P16, 3-((3-Chloro-4-methylphenyl)(4-oxo-5-(thiophen-2-ylmethylene)-4,5-dihydrothiazol-2-yl)amino)propanoic acid]", "pIC50": 4.10}]}, {"molecular_target": "T1, Furin", "experiment": "fluorogenic AMC peptide cleavage assay, […] dose response, not sigmoidal", "type": "cell-based", "values": [{"smiles": "Cc1ccc(Cl)cc1N(CCC(=O)O)c1nc2c(s1)C(=O)c1ccccc1C2=O", "note": "[P5, 3-((5-Chloro-2-methylphenyl)(4,9-dioxo-4,9-dihydronaphtho[2,3-d]thiazol-2-yl)amino)propanoic acid]", "fluorogenic AMC peptide cleavage assay, 2.5-100 μg/mL dose response, not sigmoid": "P3, P5, P7, P9, P13, and P16—were confirmed as novel Furin inhibitors, showing typical dose-dependent activity"}, {"smiles": "O=C(O)CCN(c1ccc(Cl)cc1)c1nc2c(s1)C(=O)c1ccccc1C2=O", "note": "[P9, 3-((4-Chlorophenyl)(4,9-dioxo-4,9-dihydronaphtho[2,3-d]thiazol-2-yl)amino)propanoic acid]", "fluorogenic AMC peptide cleavage assay, 2.5-100 μg/mL dose response, not sigmoid": "P3, P5, P7, P9, P13, and P16—were confirmed as novel Furin inhibitors, showing typical dose-dependent activity"}, {"smiles": "CCOC(=O)C=C(C)n1c2c(=O)c3ccccc3c(=O)c=2oc2ccc([N+](=O)[O-])cc21", "note": "[P13, Ethyl 3-(2-nitro-6,11-dioxo-6,11-dihydro-12H-benzo[b]phenoxazin-12-yl)but-2-enoate]", "fluorogenic AMC peptide cleavage assay, 2.5-100 μg/mL dose response, not sigmoid": "P3, P5, P7, P9, P13, and P16—were confirmed as novel Furin inhibitors, showing typical dose-dependent activity"}]}]}
